IC50 data for five compounds are collected here from US20260356856A1, “KRAS G12S AND G12C INHIBITORS” (MIRATI THERAPEUTICS, INC., priority 2023, published 2026).

The target of assay [1] is T1, KRas G12C (Homo sapiens, UniProt P01116, G12C).
T1 construct: Biotinylated KRas (corresponding to amino acids 1-169, produced at Accelegan Inc.); biotin (biotinylated); purchased Accelegan Inc
The assay can be described thus: KRas binding assay, TR-FRET displacement of Cy5 labelled tracer. As to conditions: 60-minute incubation at room temperature, 1% DMSO, pH 7.5. In outline: (§1)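 Displacement measured on KRas residues 1-169 (biotinylated, terbium-streptavidin labelled); 1 h, RT; 1% DMSO final; HEPES pH 7.5 / MgCl2 / Tween-20 / DTT. IC50: 4-parameter fit.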
On the technique in general: In TR-FRET formats the signal depends on donor and acceptor labels being close together.

Assay [2] has as its target T2, KRas G12S (Homo sapiens, UniProt P01116, G12S).
T2 construct: Biotinylated KRas (corresponding to amino acids 1-169, produced at Accelegan Inc.); biotin (biotinylated); purchased Accelegan Inc
The description is as above. As to conditions: 60-minute incubation at room temperature, 1% DMSO, pH 7.5. In outline: as §1

The target in assay [3] is T3, KRas WT (Homo sapiens, UniProt P01116).
T3 construct: Biotinylated KRas (corresponding to amino acids 1-169, produced at Accelegan Inc.); biotin (biotinylated); purchased Accelegan Inc
The description is as above. As to conditions: 60-minute incubation at room temperature, 1% DMSO, pH 7.5. The gist of the method: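 Biotinylated KRas (aa 1-169) incubated with Cy5-labelled tracer, terbium streptavidin and compound (1% DMSO final) in 50 mM HEPES pH 7.5, 5 mM MgCl2, 0.005% Tween-20, 1 mM DTT. Tracer displacement read by TR-FRET after 60 min at room temperature; POC values fitted to 4-parameter IC50 equation.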

The target of assay [4] is T4, KRas-mediated phosphorylation of ERK in MKN1 cells (Homo sapiens, UniProt P01116).
T4 construct: pERK HTRF read-out
The assay can be described thus: Inhibition of KRas-mediated phosphorylation of ERK (HTRF), MKN1 cells. Type of assay: cell-based. The following applies: MKN1 cells (KRas WT); HTRF pERK; 3 h incubation. The protocol:
Inhibition of KRas Phosphorylation of ERK (HTRF) by Exemplary Compounds of Formula (Ia) or (Ib)
Cisbio HTRF Advanced pERK Assay Catalog #64AERPEH • Cells: MKN1, PSN1 • Procedure: • 1. Day 1: Seed 6,000 cells/well −25 μl/well in 384-well white solid bottom plate; RPM1_10% FBS. Incubate overnight at 37 °C/5% CO2. • 2.

The target of assay [5] is T5, KRas-mediated phosphorylation of ERK in A549 cells (Homo sapiens, UniProt P01116, G12S).
T5 construct: pERK HTRF read-out
Description: Inhibition of KRas-mediated phosphorylation of ERK (HTRF), A549 cells. Type of assay: cell-based. The following applies: HTRF pERK, 3 h incubation.

Assay [6] deals with T6, KRas-mediated phosphorylation of ERK in H358 cells (Homo sapiens, UniProt P01116, G12C).
T6 construct: pERK HTRF read-out
Description: Inhibition of KRas-mediated phosphorylation of ERK (HTRF), H358 cells. In kind it is cell-based. As to conditions: HTRF pERK, 3 h incubation.

T2 sequence (P01116 1-169 isoform P01116-2 G12S): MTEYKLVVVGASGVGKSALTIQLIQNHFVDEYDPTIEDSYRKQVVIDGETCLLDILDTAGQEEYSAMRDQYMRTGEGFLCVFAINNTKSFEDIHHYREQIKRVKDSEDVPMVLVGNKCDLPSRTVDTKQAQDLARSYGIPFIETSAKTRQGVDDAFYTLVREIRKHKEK
T1 sequence (P01116 1-169 isoform P01116-2 G12C): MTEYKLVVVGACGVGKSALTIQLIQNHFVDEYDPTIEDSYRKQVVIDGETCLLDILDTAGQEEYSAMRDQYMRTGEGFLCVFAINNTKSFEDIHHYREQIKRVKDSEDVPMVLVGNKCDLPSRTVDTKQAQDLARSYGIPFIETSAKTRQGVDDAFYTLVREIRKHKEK
T3 sequence (P01116 1-169 isoform P01116-2): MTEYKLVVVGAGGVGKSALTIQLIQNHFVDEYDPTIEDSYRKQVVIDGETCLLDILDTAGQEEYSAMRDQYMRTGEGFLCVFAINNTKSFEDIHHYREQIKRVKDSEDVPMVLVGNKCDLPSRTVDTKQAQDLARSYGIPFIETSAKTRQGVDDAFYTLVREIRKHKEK
T4 sequence (P01116 1-188 isoform P01116-2): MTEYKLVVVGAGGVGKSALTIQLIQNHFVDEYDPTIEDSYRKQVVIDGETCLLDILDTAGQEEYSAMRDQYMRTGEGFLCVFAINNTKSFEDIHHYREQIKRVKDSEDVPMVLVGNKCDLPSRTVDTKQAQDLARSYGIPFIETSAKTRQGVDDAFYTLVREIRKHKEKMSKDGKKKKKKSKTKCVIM
T6 sequence (P01116 1-188 isoform P01116-2 G12C): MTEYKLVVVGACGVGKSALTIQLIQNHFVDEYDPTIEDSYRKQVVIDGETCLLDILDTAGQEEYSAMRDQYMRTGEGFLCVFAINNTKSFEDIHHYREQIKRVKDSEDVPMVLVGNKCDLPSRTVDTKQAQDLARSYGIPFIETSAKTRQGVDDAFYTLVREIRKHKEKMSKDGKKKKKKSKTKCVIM
T5 sequence (P01116 1-188 isoform P01116-2 G12S): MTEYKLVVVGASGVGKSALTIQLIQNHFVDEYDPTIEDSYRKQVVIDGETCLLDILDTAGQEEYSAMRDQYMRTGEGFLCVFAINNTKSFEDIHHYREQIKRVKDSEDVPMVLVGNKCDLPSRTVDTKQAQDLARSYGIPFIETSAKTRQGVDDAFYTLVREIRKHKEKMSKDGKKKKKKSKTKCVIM

What is called IC50 is the midpoint of a concentration-inhibition curve. For `CN(CCCC(=O)N(C)c1ccncc1)c1nc(OC[C@@]23CCCN2C[C@H](F)C3)nc2c(F)c(-c3ccc(F)c4sc(N)c(C#N)c34)c(Cl)cc12` [Example 267, 4-((7-(2-amino-3-cyano-7-fluorobenzo[b]thiophen-4-yl)-6-chloro-8-fluoro-2-(((2R,7aS)-2-fluorotetrahydro-1H-pyrrolizin-7a(5H)-yl)methoxy)quinazolin-4-yl)(methyl)amino)-N-methyl-N-(pyridin-4-yl) butanamide], the IC50 in assay [1] was found to be 5 nM; in assay [2], 8 nM; in assay [3], 9 nM; in assay [4] it was 354 nM; in assay [5], 653 nM; in assay [6], 230 nM.
Consider `CN(CCCC(=O)N(C)c1ccncn1)c1nc(OC[C@@]23CCCN2C[C@H](F)C3)nc2c(F)c(-c3ccc(F)c4sc(N)c(C#N)c34)c(Cl)cc12` [Example 268, 4-((7-(2-amino-3-cyano-7-fluorobenzo[b]thiophen-4-yl)-6-chloro-8-fluoro-2-(((2R,7aS)-2-fluorotetrahydro-1H-pyrrolizin-7a(5H)-yl)methoxy)quinazolin-4-yl)(methyl)amino)-N-methyl-N-(pyrimidin-4-yl) butanamide], for which the IC50 was 5 nM in assay [1]; 9 nM in assay [2]; 11 nM in assay [3]; 205 nM in assay [4]; 266 nM in assay [5]; 75 nM in assay [6].
For `CN(CCCC(=O)Nc1ccncc1)c1nc(OC[C@@]23CCCN2C[C@H](F)C3)nc2c(F)c(-c3ccc(F)c4sc(N)c(C#N)c34)c(Cl)cc12` [Example 269, 4-((7-(2-amino-3-cyano-7-fluorobenzo[b]thiophen-4-yl)-6-chloro-8-fluoro-2-(((2R,7aS)-2-fluorotetrahydro-1H-pyrrolizin-7a(5H)-yl)methoxy)quinazolin-4-yl)(methyl)amino)-N-(pyridin-4-yl) butanamide], the IC50 in assay [1] is 4 nM; in assay [2], 6 nM; in assay [3], 9 nM; in assay [4], 388 nM; in assay [5] it was 1180 nM; in assay [6], 411 nM.
On to `CN(CCCC(=O)Oc1ccc(F)cc1)c1nc(OC[C@@]23CCCN2C[C@H](F)C3)nc2c(F)c(-c3ccc(F)c4sc(N)c(C#N)c34)c(Cl)cc12` [Example 270, 4-fluorophenyl 4-((7-(2-amino-3-cyano-7-fluorobenzo[b]thiophen-4-yl)-6-chloro-8-fluoro-2-(((2R,7aS)-2-fluorotetrahydro-1H-pyrrolizin-7a(5H)-yl)methoxy)quinazolin-4-yl)(methyl)amino)butanoate], for which the half-maximal inhibitory concentration (IC50) in assay [1] was determined as 4 nM; in assay [2] it was 22 nM; in assay [3] it was 74 nM; in assay [4] it was 340 nM; in assay [5] it was 462 nM; in assay [6], 77 nM.
`CN(CCCC(=O)Oc1ccc(F)cc1F)c1nc(OC[C@@]23CCCN2C[C@H](F)C3)nc2c(F)c(-c3ccc(F)c4sc(N)c(C#N)c34)c(Cl)cc12` [Example 271, 2,4-difluorophenyl 4-((7-(2-amino-3-cyano-7-fluorobenzo[b]thiophen-4-yl)-6-chloro-8-fluoro-2-(((2R,7aS)-2-fluorotetrahydro-1H-pyrrolizin-7a(5H)-yl)methoxy)quinazolin-4-yl)(methyl)amino)butanoate]: the IC50 turned out to be 4 nM in assay [1]; 16 nM in assay [2]; 81 nM in assay [3]; 177 nM in assay [4]; 139 nM in assay [5]; 31 nM in assay [6].
